Assay results published in the supplement of paper PMC10307832.

Tests used:
Assay in all cases: relative viability (nuclei count vs DMSO), 5 days (fraction); higher = more cells survive
[1] = compound: CCC1=CN=CN=C1N2CCN(CC2)CC3=NC4=C(N3)C=C(C=C4)C(F)(F)F + NC(=O)Nc1cc(-c2cccc(F)c2)sc1C(=O)N[C@H]1CCCNC1 [AZD7762] (partner 0.2 µM)
How it was run: (§1)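 After 5 days of treatment, lung cancer cells in 1536-well plates were fixed and stained in a single step (final 0.05% Triton X-100, 1% formaldehyde, 1 ug/ml Hoechst) and their nuclei counted on 4× images. Treatment had been applied by pin tool the day after seeding as one drug alone or as a fixed anchor-drug dose with five library-drug doses (not always all listed) in √10 steps. Relative viability is the nuclei count of treated wells divided by that of vehicle wells, and values are medians of duplicate plates.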

[2] = compound: CCC1=CN=CN=C1N2CCN(CC2)CC3=NC4=C(N3)C=C(C=C4)C(F)(F)F + O=C(CCCCCCC(=O)Nc1ccccc1)NO [Vorinostat] (partner 1 µM)
How it was run: as §1

[3] = compound: CCC1=CN=CN=C1N2CCN(CC2)CC3=NC4=C(N3)C=C(C=C4)C(F)(F)F + O=C(c1cc(Cc2n[nH]c(=O)c3ccccc23)ccc1F)N1CCN(C(=O)C2CC2)CC1 [Olaparib] (partner 8 µM)
How it was run: as §1

[4] = compound: CCn1c(-c2nonc2N)nc2cnc(Oc3cccc(NC(=O)c4ccc(OCCN5CCOCC5)cc4)c3)cc21 + O=C(CCCCCCC(=O)Nc1ccccc1)NO [Vorinostat] (partner 1 µM)
How it was run: as §1

Cell Line	relative viability ([1]; first compound 0.04 µM)	relative viability ([1]; first compound 0.1265 µM)	relative viability ([1]; first compound 0.4 µM)	relative viability ([1]; first compound 1.265 µM)	relative viability ([1]; first compound 4 µM)	relative viability ([2]; first compound 0.04 µM)	relative viability ([2]; first compound 0.1265 µM)	relative viability ([2]; first compound 0.4 µM)	relative viability ([2]; first compound 1.265 µM)	relative viability ([2]; first compound 4 µM)	relative viability ([3]; first compound 0.04 µM)	relative viability ([3]; first compound 0.1265 µM)	relative viability ([3]; first compound 0.4 µM)	relative viability ([3]; first compound 1.265 µM)	relative viability ([3]; first compound 4 µM)	relative viability ([4]; first compound 0.04 µM)	relative viability ([4]; first compound 0.1265 µM)	relative viability ([4]; first compound 0.4 µM)	relative viability ([4]; first compound 1.265 µM)	relative viability ([4]; first compound 4 µM)
NCI-H1355	0.744	0.722	0.638	0.627	0.637	0.643	0.575	0.584	0.585	0.644	0.775	0.654	0.732	0.667	0.643	0.653	0.668	0.413	0.377	0.313
NCI-H1915	0.684	0.688	0.694	0.597	0.734	0.591	0.51	0.496	0.492	0.559	0.27	0.248	0.252	0.268	0.249	0.507	0.52	0.472	0.244	0.225
BEN	0.573	0.57	0.614	0.611	0.578	0.556	0.566	0.565	0.457	0.464	1.01	1.08	1.03	0.629	0.598	0.566	0.544	0.371	0.349	0.402
NCI-H322M	0.538	0.591	0.572	0.511	0.653	1.12	0.855	0.859	0.621	0.912	0.792	0.811	0.725	0.672	0.85	1.26	1.31	0.856	0.554	0.675
HOP-62	0.491	0.439	0.602	0.558	0.746	0.604	0.56	0.462	0.429	0.606	0.377	0.293	0.269	0.458	0.363	0.936	0.769	0.521	0.382	0.394
HCC-366	0.33	0.256	0.219	0.226	0.302	0.365	0.3	0.296	0.332	0.417	0.38	0.355	0.29	0.349	0.335	0.396	0.3	0.137	0.0204	0.0377
NCI-H2405	0.772	0.735	0.674	–	0.901	1.03	0.961	0.925	–	1.12	0.898	0.874	0.821	–	0.919	0.938	0.488	0.264	0.239	0.238
NCI-H1648	0.666	–	–	0.655	0.683	0.684	–	–	0.362	0.403	0.985	–	–	0.558	0.673	0.922	0.472	0.42	1.46	1
LXF-289	1.3	1.01	1.1	1.29	1.05	0.933	0.735	0.718	0.742	0.789	1.08	1.01	1.05	1.02	0.933	0.862	0.886	0.79	0.777	0.604
